Data as given in patent publication US20080112927A1, “Cells and methods utilizing same for modifying the electrophysiological function of excitable tissues” (GeneGrafts Ltd., priority 2006, published 2008).

Legend:
[1] = test system: cultured neuronal network (cortical neurons); assay: Spiking activity of cultured cortical neuronal network on multi electrode array (MEA); type: cell-based, rat
Procedure: Cortical neurons were obtained from newborn rats within 24 hours from birth, following standard harvesting procedures (Culturing nerve cells, 2nd edition, Gary Ranker and Kimberly Goslin, 1998). The cortex tissue was digested enzymatically and mechanically dissociated and the neurons were plated directly onto substrate-integrated multi-electrode array (MEA) dishes prepared as described below. The cultures were bathed in MEM which was supplemented with heat-inactivated horse serum (5%), Glutamine (0.5 mM), Glucose (20 mM), and Gentamycin (10 μg/ml), and maintained in a tissue culture incubator at 37° C., 5% CO2 and 95% during the recording phases. Half of the medium was exchanged twice a week and the experiments were performed during the third week following plating, thus allowing complete maturation of the neurons (FIGS. 1a-b).
Arrays of 60 Ti/Au/TiN electrodes, 30 μm in diameter, spaced 200 μm from each other (MultiChannelSystems (MCS), Reutlingen, Germany) were utilized in the present study. The insulation layer (silicon nitride), was pretreated with poly-L-lysine forming a good surface for network development. A commercial 60-channel amplifier (B-MEA-1060, MCS, Reutlingen, Germany) with frequency limit range of 10-3000 Hz and a gain of ×1024 was utilized for signal amplification. The amplifier was connected to MCPPlus filter amplifiers (Alpha Omega, Nazareth, Israel) for further amplification (×10 to ×20). Stimulation through the MEA was performed using a dedicated 8-channel stimulus generator (MCS, Reutlingen, Germany).
In addition, the micro-incubation environment was arranged to support long-term recordings from MEA dishes. This was achieved by streaming a filtered, heated and humidified air/CO2 (95/5%) gas mixture, and by electrically heating the MEA platform to 37° C. Data is digitized using two 5200a/526 A/D boards (Microstar Laboratories, Wash., USA).
Following electrical functionality determination, the neuronal network cultures were incubated with various electrical conduction blockers.

[2] = test system: Kv1.3 channel of grafted fibroblasts in right ventricle; assay: ERP after local Margatoxin in pigs grafted with Kv1.3 fibroblasts; type: in vivo, pig
Procedure: Swine model—Three domestic pigs (20-30) kg were studied. Anesthesia was induced with 5-10 ml of intravenous sodium pentothal 2.5% solution and maintained with inhaled isoflurane (2%) in oxygen. Following a right thoracotomy, each heart was exposed and a total of 6×10^6 cells were transplanted at a total of 7 different locations in the anterior free wall of the right ventricle. Cells were delivered using a 25 g needle using an injection volume of 250 μl. The sites of cell transplantation were marked with a suture. To prevent graft rejection, the animals were treated with an immunosuppressive regimen (cyclosporine, 10 mg/kg/d and methylprednisolone, 3 mg/kg/d). 7 days following cell transplantation, a second thoracotomy and a detailed epicardial electrophysiological study were performed.
The ERP in the pigs was measured in a similar manner to that in the rats but using slower basic stimulation intervals (CLs of 350, 400 and 500 ms). The ERP was measured at the site of cell transplantation as well as in remote sites and also following local intramyocardial injection of Margatoxin at the examined sites.

[3] = test system: Kv 1.3 channel of grafted fibroblasts in left ventricular myocardium; assay: ERP after Margatoxin in rats grafted with Kv1.3 fibroblasts; type: in vivo, rat; conditions: 9 μg/kg intraperitoneal bolus; for local ventricular ERP at the site of cell transplantation after MTx, group mean: 154±13 ms before blocker (FIG. 19b)
Procedure: (§1) Rat model—Male Sprague-Dawley rats weighing 200-250 gr were anesthetized using A Xylasine (0.5 mg/kg) and Ketamine (0.5 mg/kg) preparation [see Example 7]. The animals were then intubated and ventilated using a Harvard small-animal mechanical respirator. The chest wall was opened using a left thoracotomy and the heart was exposed. After removal of the pericardium, a total of 6×10^6 cells (either fibroblasts without transfections in the control group or fibroblast overexpressing the KV1.3 channel in the study group) were transplanted into the anterior aspect of the left ventricular wall using a 28 g needle. In order to prevent graft rejection, all animals were treated with a daily dose of cyclosporin (10 mg/kg) and methyprednisolone (2 mg/kg). The animals underwent a detailed electrophysiological study (see below) immediately before cell grafting and 7 days post-transplantation.
(§2) In vivo electrophysiological studies—The electrophysiological study in rats included a standard ventricular pacing protocol to determine the local myocardial effective refractory period (ERP). The ERP was evaluated by applying a train of 20 stimuli at a fixed cycle-length of 200 ms (S1), followed by a single premature stimulus (S2). The S1-S2 coupling interval was gradually shortened. The ERP was determined as the shortest S1-S2 coupling interval still capable of eliciting a ventricular response. Stimuli were generated using a computer controlled STG 1004 stimulus generator with the matching MC-Stim software (both from Multi Channel Systems, Reutlingen, Germany).
The ERP was measured at the site of cell transplantation and at remote sites, both prior to cell transplantation and seven days following cell grafting. In order to dissect the role of the overexpressed channel in altering the local myocardial electrophysiological properties, the ERP was measured also at each site following application of 9 μg/kg of Margatoxin (Alomone Labs, Jerusalem, Israel), a specific Kv 1.3 channel blocker as an intraperitoneal bolus.

[4] = test system: left ventricular myocardium grafted with naive fibroblasts; assay: ERP after Margatoxin in rats grafted with naive fibroblasts (control group); type: in vivo, rat; conditions: animals grafted with naive fibroblasts, 88±4 ms before blocker
Procedure: as §1, with “The animals underwent a detailed electrophysiological study (see below) immediately before cell grafting and 7 days post-transplantation.” left out
as §2, with “The S1-S2 coupling interval was gradually shortened.” left out, “Stimuli were generated using a computer controlled STG 1004 stimulus generator with the matching MC-Stim software (both from Multi Channel Systems, Reutlingen, Germany).” left out
The ERP was measured at the site of cell transplantation and at remote sites, both prior to cell transplantation and seven days following cell grafting. […]

[5] = biological target: mutant voltage gated potassium channel Kv1.3 (GenBank Accession number H18261) expressed in NIH 3T3 fibroblasts; assay: cell-based or functional assay
[6] = test system: cardiomyocyte cultures seeded with naive fibroblasts; assay: CTx on spontaneous beating rate of control co-cultures (naive fibroblasts) (Example 8); type: cell-based, rat; conditions: CTx application, control group
Procedure: (§3) Expression system and electrophysiological recordings—NIH 3T3 fibroblast cells (ATCC: CRL 1658) were stably transfected to express the voltage gated potassium channel Kv1.3 as previously described [Feld Y. et al. Circulation. (2002); 105:522-529]. Briefly, stable transfection of pRC/CMV/Kv1.3 in fibroblasts was achieved using electroporation with a single pulse of 200 V, 960° F. followed by antibiotic selection of NeoR clones with 400 μg/mL of G-418 (GIBCO, Langley, Okla., USA). Colonies were picked and tested for channel expression using whole-cell patch clamp recordings. The recordings were conducted at room temperature using Axopatch 200 (Axon Instruments). Kv1.3 expressing fibroblast were generated as previously described [Feld Y. et al. Circulation. (2002); 105:522-9]. […]
(§4) Once a well synchronous spontaneous activity was established in the cardiomyocyte cultures, fibroblasts (naïve, or Kv1.3 expressing fibroblasts) were seeded in a diffuse manner into the cardiomyocytic cultures. Two groups were studied: The cultures were studied daily, and the electrophysiological properties, essentially the spontaneous beating rate of the culture, was assessed at baseline and following application of the specific Kv1.3 blocker, Charybdotoxin (CTx), at increasing dosages (1, 10, 100 nM). […]

[7] = test system: cardiomyocyte cultures seeded with Kv1.3 expressing fibroblasts; assay: CTx on spontaneous beating rate of study co-cultures (Kv1.3 expressing fibroblasts) (Example 8); type: cell-based, rat; conditions: CTx 100 nM, study group (FIG. 18b)
Procedure: as §3, §4

[8] = test system: cardiomyocyte cultures or cardiomyocytes co-cultured with untransfected fibroblasts; assay: CTX on MEA-recorded activity of control cultures (Example 5); type: cell-based, rat; conditions: for increase of spontaneous activity rate: control cultures
Procedure: (§5) Monolayer cultures of neonatal rat ventricular cardiomyocytes (NRVM) were prepared as previously described (Rubin et al, 1995), with some modifications. The cultures were maintained in a humidified incubator under a controlled environment of 5% CO2+95% air at 37° C.; fresh medium was replaced on alternating days.
(§6) Fibroblasts from the NIH 3T3 cell line were transfected with an expression cassette which included a mutant voltage gated potassium channel (Kv1.3) coding sequence (GeneBank Accession number H18261) placed under the transcription control of a constitutive promoter using standard procedures. Fibroblast cultures not transfected with the channel coding sequence were produced from the NIH 3T3 cell-line.
Once well synchronous spontaneous activity was established in the cardiomyocyte cultures, fibroblasts transfected with the Kv1.3 channel coding sequence or non-transfected fibroblasts were added to the cultures. Two different methods where used to seed the fibroblasts. In the first method, the fibroblast were suspended in trypsin for 5 minutes following which they were seeded in a diffuse pattern in the cardiomyocytic cultures (FIG. 4a). […]
Extracellular recordings from cultured cardiomyocytes were performed on a PC-based Microelectrode Data Acquisition System (Multi Channel Systems, Reutlingen, Germany), consisting of Multi-Electrode Array (MEA), pre- and filter-amplifiers, data acquisition board, and software. […] Data were recorded at 10-25 KHz with 12-bit precision. […]
Recorded data was filtered using cutoff frequency of 2 KHz (Fast et al, 1993). […] Conduction velocity was calculated by standard methods (Bayly et al, 1988).
(§7) Conduction block quantification is central to evaluating conduction block development in the cell cultures, and to evaluating reversibility of the conduction block following CTX application. A conduction block was determined using the following algorithm: […]
(§8) Electrical activity of the cultures was recorded on day one immediately prior to seeding of the fibroblasts and then daily until the cultures died or no spontaneous activity was detected. […]

[9] = test system: cardiomyocytes co-cultured with fibroblasts (NIH 3T3) transfected with voltage gated potassium channel Kv1.3; assay: CTX on MEA-recorded activity of cardiomyocytes co-cultured with Kv1.3 transfected fibroblasts (Example 5); type: cell-based, rat; conditions: for increase of spontaneous activity rate: co-cultures with transfected fibroblasts
Procedure: as §5, §6
Once well synchronous spontaneous activity was established in the cardiomyocyte cultures, fibroblasts transfected with the Kv1.3 channel coding sequence or non-transfected fibroblasts were added to the cultures. Two different methods where used to seed the fibroblasts. In the first method, the fibroblast were suspended in trypsin for 5 minutes following which they were seeded in a diffuse pattern in the cardiomyocytic cultures (FIG. 4a). In the second method, the fibroblasts where pipetted up and down through a 5 ml pipette for 2 minutes and seeded in the cardiomyocytic cultures thus were forming clusters of fibroblasts (FIG. 4b).
Extracellular recordings from cultured cardiomyocytes were performed on a PC-based Microelectrode Data Acquisition System (Multi Channel Systems, Reutlingen, Germany), consisting of Multi-Electrode Array (MEA), pre- and filter-amplifiers, data acquisition board, and software. The MEA consists of a 50×50 mm glass substrate, in the center of which is an embedded 0.7×0.7 or 1.4×1.4 mm matrix of 60 Titanium-nitride, gold contacts 10 or 30 μm diameter electrodes insulated with silicone nitride, with inter-electrode distance of 100 or 200 μm (there are no electrodes in the corners of the matrix). Data were recorded at 10-25 KHz with 12-bit precision. During the recording sessions, the MEA (removed from the regular incubator) was constantly perfused with a gas mixture consisting of 5% CO2+95% air. Temperature was kept at 37±0.10° C.
Recorded data was filtered using cutoff frequency of 2 KHz (Fast et al, 1993). The filtered signal was then differentiated digitally to determine the Local Activation Time (LAT) at each electrode, corresponding to dF/dtmin (where F is the filtered signal) (Dolber and Spach, 1986). Color-coded activation maps were constructed by interpolating the LAT values for the sites between the electrodes, and by extrapolating the LAT values for the 4 corners of the MEA matrix. Activation maps were plotted by means of Matlab standard 2-d plotting function (pcolor) (Matlab 5.3 Mathworks Incorporated©). Conduction velocity was calculated by standard methods (Bayly et al, 1988).
as §7, §8

CN1CCc2cc3c(cc2[C@H]1[C@@H]1OC(=O)c2c1ccc1c2OCO1)OCO3 [bicuculin]
spiking activity ([1]; 5 μM added to the cultured neuronal network): completely abolished

O=[N+]([O-])c1cc2nc(O)c(O)nc2cc1[N+](=O)[O-] [DNQX]
spiking activity ([1]; 10 μM added to the cultured neuronal network): completely abolished

N[C@H](CCCP(=O)(O)O)C(=O)O [APV, D-2-amino-5-phosphonovalerate]
spiking activity ([1]; 20 μM added to the cultured neuronal network): completely abolished

Margatoxin (TIINVKCTSPKQCLPPCKAQFGQSAGAKCMNGKCKCYPH)
local ERP after local application of MTx ([2]; pig, basic CL 400 ms, 310 ms before blocker (FIG. 20a)): 220 ms | ventricular ERP after local application of MTx ([2]; pigs, all three CLs (FIG. 20b)): not different from the control sites | local ventricular ERP at the site of cell transplantation after MTx, group mean [3]: 117 ± 7.70 ms | local ventricular ERP at the site of cell transplantation after MTx, group mean ([3]; listed as MTx): 117 ± 8 ms | ventricular ERP at the site of cell grafting after Margatoxin, one of the animals ([3]; 170 ms before blocker (FIG. 19a)): 100 ms | local ERP after administration of Mtx, control group [4]: did not change significantly

Margatoxin (from UniProt P40755 1-39) (peptide)
local ventricular effective refractory period (ERP) at the graft site in one rat after Margatoxin (170 ms before) [5]: 100 ms

Charybdotoxin (QFTNVSCTTSKECWSVCQRLHNTSRGKCMNKKCRCYS) [CTX]
beating frequency [6]: did not significantly alter | reversibility of the negative chronotropic effect induced by the transfected fibroblast [7]: full reversibility | increase of spontaneous activity rate ([8]; CTX 10 nM): did not increase | increase of spontaneous activity rate ([8]; CTX 100 nM): up to 15% | conduction block factor ([8]; application of Charybdotoxin, co-cultures with non-transfected fibroblasts, n=9 (FIG. 11)): minimal response | increase of spontaneous activity rate ([9]; CTX 10 nM): 20% | increase of spontaneous activity rate ([9]; CTX 100 nM): 55% | conduction block factor ([9]; application of Charybdotoxin, co-cultures with Kv1.3 transfected fibroblasts, n=10 (FIG. 11)): substantially decreased | conduction blocks ([9]; following treatment with CTX (10 nM, FIG. 7d; FIG. 11)): reversed | uncoupling effect after fibroblast seeding ([9]; following treatment with CTX (100 nM, FIGS. 6f-g)): reversed
